Active and inactive are the calls of the source. The calls are words filed in the database; no cut-off is given here.
Assays:
[1] = system: Human immunodeficiency virus 1; experiment: Antiviral activity against HIV1 3B infected infected in human MT4 cells assessed as protection against virus-induced cytotoxicity after 5 days by MTT assay; format: functional, organism-based; settings: Human immunodeficiency virus 1, 3B, MT4, 120 h
[2] = system: Human immunodeficiency virus 2; experiment: Antiviral activity against HIV2 ROD infected in human MT4 cells assessed as protection against virus-induced cytotoxicity after 5 days by MTT assay; format: functional, organism-based; settings: Human immunodeficiency virus 2, ISOLATE ROD, MT4, 120 h
[3] = system: HeLa; experiment: Cytotoxicity against mock-infected human […] cells by MTT assay; format: functional
[4] = Selectivity index, ratio of CC50 for mock-infected human […] cells to EC50 for HIV2 ROD infected in human MT4 cells; format: toxicity, cell-based; settings: read-out: Ratio CC50/EC50
[5] = biological target: Reverse transcriptase (Human immunodeficiency virus 2) (UniProt Q06347); experiment: Inhibition of HIV2 reverse transcriptase using poly(A).oligo(dT) template/primer after 30 mins at 200 ug/mL
[6] = biological target: Reverse transcriptase (Human immunodeficiency virus 2) (UniProt Q06347); experiment: Inhibition of HIV2 reverse transcriptase using poly(C).oligo(dG) template/primer after 30 mins at 200 ug/mL
[7] = system: Human immunodeficiency virus; experiment: Antiviral activity against HIV; format: functional, organism-based; settings: Human immunodeficiency virus 1
[8] = system: Human immunodeficiency virus 1; experiment: Antiviral activity against HIV1; format: functional, organism-based
[9] = system: Human immunodeficiency virus 2; experiment: Antiviral activity against HIV2; format: functional, organism-based

Chain of Reverse transcriptase (Human immunodeficiency virus 2) (Q06347 as listed by the source): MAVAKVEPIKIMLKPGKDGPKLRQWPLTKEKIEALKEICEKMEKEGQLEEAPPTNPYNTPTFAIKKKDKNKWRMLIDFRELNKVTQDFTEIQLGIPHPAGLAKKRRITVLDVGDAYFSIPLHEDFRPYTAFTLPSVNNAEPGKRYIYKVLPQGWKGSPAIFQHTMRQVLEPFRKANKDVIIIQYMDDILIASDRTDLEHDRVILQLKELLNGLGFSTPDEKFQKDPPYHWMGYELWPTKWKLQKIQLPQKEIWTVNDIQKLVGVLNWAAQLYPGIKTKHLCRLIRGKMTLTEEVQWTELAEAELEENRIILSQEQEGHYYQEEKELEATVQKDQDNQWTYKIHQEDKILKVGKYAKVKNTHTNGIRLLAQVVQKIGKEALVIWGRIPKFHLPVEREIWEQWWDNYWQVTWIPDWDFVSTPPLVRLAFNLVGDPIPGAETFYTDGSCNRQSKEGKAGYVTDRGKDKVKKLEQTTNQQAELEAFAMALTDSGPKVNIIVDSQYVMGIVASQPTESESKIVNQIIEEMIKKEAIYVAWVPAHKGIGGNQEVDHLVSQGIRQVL

Structure (SMILES) | EC50 [1] | EC50 [2] | CC50 [3] | selectivity ratio [4] | inhibition [5] | inhibition [6] | EC50 [7] | EC50 [8] | EC50 [9]
Cc1ccnc2c1NC(=O)c1cccnc1N2C1CC1 [NEVIRAPINE] | 0.027 µM | > 4 µM | > 4 µM |  |  |  |  |  | 
Nc1ccn([C@@H]2CS[C@H](CO)O2)c(=O)n1 [LAMIVUDINE] | 0.89 µM | 3.56 µM | > 20 µM | > 5.6 |  |  |  |  | 
Cn1c2ccccc2c2cc(C(=O)N3CCN(c4ccc([N+](=O)[O-])cc4)CC3)nc(-c3ccccc3)c21 | > 204 µM | > 204 µM | > 204 µM |  |  |  |  |  | 
Cn1c2ccccc2c2cc(C(=O)N3CCN(c4ccccc4Cl)CC3)nc(-c3ccccc3)c21 | > 23.6 µM | > 23.6 µM | 23.6 µM | < 1 |  |  |  |  | 
Cn1c2ccccc2c2cc(C(=O)N3CCN(c4cccc(Cl)c4Cl)CC3)nc(-c3ccccc3)c21 | > 63.9 µM | > 63.9 µM | 63.9 µM | < 1 |  |  |  |  | 
Cn1c2ccccc2c2cc(C(=O)N3CCN(Cc4ccccc4)CC3)nc(-c3ccccc3)c21 | > 21.7 µM | > 21.7 µM | 21.7 µM | < 1 |  |  |  |  | 
Cn1c2ccccc2c2cc(C(=O)N3CCN(c4ccccc4F)CC3)nc(-c3ccccc3)c21 | > 50.6 µM | 5.4 µM | 50.6 µM | 9 | inactive | inactive |  |  | 
Cn1c2ccccc2c2cc(C(=O)N3CCN(c4ccc(F)cc4)CC3)nc(-c3ccccc3)c21 | > 189 µM | 2.6 µM | > 189 µM | > 72 | inactive | inactive |  |  | 
Cn1c2ccccc2c2cc(C(=O)N3CCN(c4ccc(Cl)cc4)CC3)nc(-c3ccccc3)c21 | > 208 µM | > 208 µM | > 208 µM |  |  |  |  |  | 
Cc1ccc(N2CCN(C(=O)c3cc4c5ccccc5n(C)c4c(-c4ccccc4)n3)CC2)cc1 | > 29.6 µM | 3.3 µM | 29.6 µM | 9 | inactive | inactive |  |  | 
COc1ccccc1N1CCN(C(=O)c2cc3c4ccccc4n(C)c3c(-c3ccccc3)n2)CC1 | > 25.3 µM | 3.2 µM | 25.3 µM | 8 | inactive | inactive |  |  | 
COc1cccc(N2CCN(C(=O)c3cc4c5ccccc5n(C)c4c(-c4ccccc4)n3)CC2)c1 | > 134 µM | > 134 µM | 134 µM | < 1 |  |  |  |  | 
Cn1c2ccccc2c2cc(C(=O)N3CCN(c4ccccc4)CC3)nc(-c3ccccc3)c21 | > 224 µM | 29.4 µM | > 224 µM | > 8 | inactive | inactive |  |  | 
COc1ccc(N2CCN(C(=O)c3cc4c5ccccc5n(C)c4c(-c4ccccc4)n3)CC2)cc1 | > 210 µM | > 210 µM | > 210 µM |  |  |  |  |  | 
O=C(O)c1cc2c([nH]c3ccccc32)c(-c2ccc(CO)o2)n1 [FLAZINE] |  |  |  |  |  |  | 2.36 µM |  | 
Cn1c2ccccc2c2cc(C(=O)N3CCN(c4ccccn4)CC3)nc(-c3ccccc3)c21 | > 19.2 µM | > 19.2 µM | 19.2 µM | < 1 |  |  |  |  | 
Cc1cn([C@H]2C[C@H](N=[N+]=[N-])[C@@H](CO)O2)c(=O)[nH]c1=O [ZIDOVUDINE] | 0.0019 µM | 0.0016 µM | > 25 µM | > 12500 |  |  |  |  | 
O=c1[nH]cnc2c1ncn2[C@H]1CC[C@@H](CO)O1 [DIDANOSINE] | 2.56 µM | 2.27 µM | > 50 µM | > 21.7 |  |  |  |  | 
Cc1ccccc1N1CCN(C(=O)c2cc3c4ccccc4n(C)c3c(-c3ccccc3)n2)CC1 | > 16.9 µM | > 16.9 µM | 16.9 µM | < 1 |  |  |  |  | 
NC(=O)c1cc2c([nH]c3ccccc32)c(-c2ccc(CO)o2)n1 |  |  |  |  |  |  |  | 0.38 µM | 0.57 µM
Cn1c2ccccc2c2cc(C(=O)N3CCN(c4cccc(Cl)c4)CC3)nc(-c3ccccc3)c21 | > 111 µM | > 111 µM | 111 µM | < 1 |  |  |  |  | 
Cn1c2ccccc2c2cc(C(=O)N3CCN(c4ccncc4)CC3)nc(-c3ccccc3)c21 | > 4.02 µM | > 4.02 µM | 4.02 µM | < 1 |  |  |  |  | 

From ChEMBL document CHEMBL3396978, “Design, synthesis of new β-carboline derivatives and their selective anti-HIV-2 activity” (Bioorg Med Chem Lett, 2015)
